The structures appear in SMILES notation.

The text below walks through data of ChEMBL document CHEMBL1142931, “Vascular disrupting agents” (Bioorg Med Chem, 2007).

The series is filed under the species Homo sapiens. In words: Half life in human assessed as ZD-6126-phenol. It counts as ADME, organism-based. To be noted: in vivo.

For the molecule `COc1cc2c(c(OC)c1OC)-c1ccc(OP(=O)(O)O)cc1[C@@H](NC(C)=O)CC2` [ZD-6126], the t1/2 stood at 2 h.
